Experimental data taken from ChEMBL document CHEMBL1135837, “Approach to dual-acting platelet activating factor (PAF) receptor antagonist/thromboxane synthase inhibitor (TxSI) based on the link of PAF antagonists and TxSIs” (Bioorg Med Chem Lett, 2002).

Key:
Format in all cases: functional
Thromboxane-A synthase = target: T1, Thromboxane-A synthase (Homo sapiens, UniProt P24557); test: In vitro inhibition of TXB2 production by incubating prostaglandin H2 with human platelet microsomes.
T1 sequence (P24557 whole entry): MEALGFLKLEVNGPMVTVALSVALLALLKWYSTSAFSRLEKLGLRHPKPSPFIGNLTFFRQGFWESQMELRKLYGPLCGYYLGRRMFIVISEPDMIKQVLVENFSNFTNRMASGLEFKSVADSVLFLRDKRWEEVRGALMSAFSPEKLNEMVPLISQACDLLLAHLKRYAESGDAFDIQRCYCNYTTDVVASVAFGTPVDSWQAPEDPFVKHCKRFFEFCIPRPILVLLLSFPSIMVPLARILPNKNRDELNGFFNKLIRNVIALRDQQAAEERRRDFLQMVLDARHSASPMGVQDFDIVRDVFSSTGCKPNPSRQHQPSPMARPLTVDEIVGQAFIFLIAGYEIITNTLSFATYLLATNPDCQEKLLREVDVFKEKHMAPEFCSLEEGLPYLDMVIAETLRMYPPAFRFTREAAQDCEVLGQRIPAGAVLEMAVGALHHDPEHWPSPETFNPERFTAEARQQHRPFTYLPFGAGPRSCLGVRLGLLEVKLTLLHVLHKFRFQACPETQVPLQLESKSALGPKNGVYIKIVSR

Oryctolagus cuniculus = species on record: Oryctolagus cuniculus; test: In vitro inhibition of platelet activating factor induced platelet aggregation in rabbit platelet rich plasma.
Mus musculus = species on record: Mus musculus; test: Ex vivo antagonistic activity towards platelet activating factor was assessed in mouse by using PAF-induced death assay

Structure (SMILES)	IC50 (Thromboxane-A synthase) [nM]	IC50 (Oryctolagus cuniculus) [nM]	ED50 (Mus musculus) [mg/kg]
CCOC(=O)CCCCO/N=C(/c1cccnc1)c1ccccc1C(=O)N1CCN(C(=O)C2CSC(c3cccnc3)N2)CC1 (stereo not given)	> 1000	560	–
CCOC(=O)CCCCO/N=C(\c1cccnc1)c1cccc(CN2CCN(C(=O)C3CSC(c4cccnc4)N3)CC2)c1 (stereo not given)	88	200	–
CCOC(=O)CCCCO/N=C(\c1ccc(NC(=O)C2CSC(c3cccnc3)N2)cc1)c1cccnc1 (stereo not given)	21	> 1000	–
CCOC(=O)CCCCO/N=C(\c1cccnc1)c1cccc(NC(=O)c2ccn3c2CSC3c2cccnc2)c1 (stereo not given)	1.2	450	–
CCOC(=O)CCCCO/N=C(/c1cccnc1)c1cccc(CNS(=O)(=O)c2ccc(Cn3c(C)nc4cnccc43)cc2)c1	4.7	68	–
CCOC(=O)CCCCO/N=C(/c1ccccc1)c1cccnc1	1	–	–
Cc1nc2cnccc2n1Cc1ccc(S(=O)(=O)NCc2cccc(/C(=N\OCCCCC(=O)O)c3cccnc3)c2)cc1	1.8	> 1000	–
CCOC(=O)CCCCO/N=C(/c1cccnc1)c1cccc(C(=O)N2CCN(C(=O)C3CSC(c4cccnc4)N3)CC2)c1 (stereo not given)	52	480	–
CCOC(=O)CCCCO/N=C(\c1cccnc1)c1cccc(CNS(=O)(=O)c2ccc(Cn3c(C)nc4cnccc43)cc2)c1	5.8	68	–
CCOC(=O)CCCCO/N=C(\c1ccc(NC(=O)c2ccn3c2CSC3c2cccnc2)cc1)c1cccnc1 (stereo not given)	3.6	550	–
CCOC(=O)C1=C(c2ccc(-n3c(C)nc4cnccc43)cc2)NC(C)=C(C(=O)Nc2ccccn2)C1c1ccccc1Cl (stereo not given)	–	29	–
CCOC(=O)CCCCO/N=C(/c1cccnc1)c1cccc(C(=O)N2CCc3c(sc4c3C(c3ccccc3Cl)=NC(C)c3nnc(C)n3-4)C2)c1 (stereo not given)	65	60	2.3
CCOC(=O)CCCCO/N=C(\c1ccc(CN2CCN(C(=O)C3CSC(c4cccnc4)N3)CC2)cc1)c1cccnc1 (stereo not given)	72	280	–
O=C(O)CCCCO/N=C(\c1cccnc1)c1cccc(CN2CCN(C(=O)C3CSC(c4cccnc4)N3)CC2)c1 (stereo not given)	12	> 1000	–
CCOC(=O)CCCCO/N=C(\c1ccc(C(=O)N2CCc3c(sc4c3C(c3ccccc3Cl)=NC(C)c3nnc(C)n3-4)C2)cc1)c1cccnc1 (stereo not given)	72	100	0.5
CCOC(=O)CCCCO/N=C(\c1cccnc1)c1cccc(NC(=O)C2CSC(c3cccnc3)N2)c1 (stereo not given)	21	> 1000	–
CCOC(=O)CCCCO/N=C(\c1ccc(C(=O)N2CCN(C(=O)C3CSC(c4cccnc4)N3)CC2)cc1)c1cccnc1 (stereo not given)	44	610	–
Cc1nnc2n1-c1sc3c(c1C(c1ccccc1Cl)=N[C@H]2C)CCN(C(=O)C1CC1)C3 (racemic)	–	360	–
